In data set [1] the test system is Babesia bovis, Babesia canis. Description: In vitro antibabesia activity, (3H) hypoxanthine incorporation. The class given is cell-based. As to conditions: score from ED50 of (3H) hypoxanthine incorporation. The text has this:
The screening process for antimalaria activity, based on parasite incorporation of (^3 H) hypoxanthine was used to test the antimetabolic activity of such components against Babesia bovis, Babesia canis. A tight relationship was found between the rate of (^3 H) hypoxanthine incorporation using standard measurements and the percentage of parasitized cells determined by microscopy. […] The score was ++ for the same activity at a concentration of 0.01 to 0.1 micromoles and finally + for a concentration under or equal to 1 micromole.

Data set [2] in a line: Therapeutic index in infected mice (antimalaria activity compared with semi-chronic toxicity). The class given is in vivo. To be noted: mouse, in vivo, i.p. or s.c., twice a day for four days, ratio of activity over toxicity (LD50). The protocol:
In order to evaluate the therapeutic index of the different products, the activity of these products was tested in vivo and compared with […] toxicity in animals. This activity was measured using the test described by PETERS W. (Chemotherapy and Drug resistance in Malaria, 1970). A compound was administered for four consecutive days to mice previously infected with Plasmodium vinckei, petterei or chabaudi. The said compound was dissolved in a 0.9% NaCl solution. The preparations were thus administered intraperitoneally or subcutaneously in male Swiss mice infected by intravenous injection of Plasmodium petterei or Plasmodium chadaudi (10^6 infected cells). The compound was administered twice a day for four consecutive days, the first injection being performed two hours after the infestation and the second, 10 hours later. The parasitemia was determined on blood smears the day after the end of treatment. Toxicity was measured in vivo following the same schedule, the animals having received, under the same administration conditions as above, two injections per day for four days (semi-chronic toxicity). The results are expressed in lethal dose 50 (LD50), i.e. the dose causing death in 50% of the animals.
The results of these trials are summarized in Table I, below, and expressed as therapeutic index, or the ratio of activity over toxicity measured under the identical conditions described above.

As to `CCC[N+](C)(CC)CCCCCCCCCCCCCC[N+](C)(CC)CCC` (centres unmarked) [EXAMPLE 1, N,N'-dimethyl-N,N'-diethyl-N,N'-dipropyl-1,14 tetradecanediaminium, dibromide], the “Antibabesia activity at 10 millimoles” value in data set [1] is on record as “++ (the same activity at a concentration of 0.01 to 0.1 micromoles)”. Moreover, the selectivity ratio in data set [2] turned out to be 50.

For the molecule `CCC[N+](C)(CC)CCCCCCCCCCCCCCC[N+](C)(CC)CCC.[Br-].[Br-]` (centres unmarked) [EXAMPLE 2, N,N'-dimethyl-N,N'-diethyl-N,N'-dipropyl-1,15-pentadecanediaminium dibromide], in data set [1], the “Antibabesia activity at 10 millimoles” value was “+ (a concentration under or equal to 1 micromole)”. The selectivity ratio in data set [2] was 42.

For `CCC[N+](C)(CC)CCCCCCCCCCCCCCCC[N+](C)(CC)CCC.[Br-].[Br-]` (centres unmarked) [EXAMPLE 3, N,N'-dimethyl-N,N'-diethyl-N,N'-dipropyl-1,16-hexadecanediaminium dibromide], the selectivity ratio in data set [2] was found to be 15.

In the case of `CCC[N+](C)(CC)CCCCCCCCCCCCCCCCC[N+](C)(CC)CCC.[Br-].[Br-]` (centres unmarked) [EXAMPLE 4, N,N'-dimethyl-N,N'-diethyl-N,N'-dipropyl-1,17-heptadecanediaminium dibromide], in data set [1], the “Antibabesia activity at 10 millimoles” value is reported as “++ (the same activity at a concentration of 0.01 to 0.1 micromoles)”. For the same molecule, the selectivity ratio in data set [2] was 17.

Consider `CCC[N+](C)(CC)CCCCCCCCCCCCCCCCCC[N+](C)(CC)CCC.[Br-].[Br-]` (centres unmarked) [EXAMPLE 5, N,N'-dimethyl-N,N'-diethyl-N,N'-dipropyl-1,18-octadecanediaminium dibromide], for which, in data set [1], the “Antibabesia activity at 10 millimoles” value was “+++ (a 50% inhibition of (^3 H) hypoxanthine incorporation (ED50), these molecules having a concentration less than or equal to 0.01 micromoles)”. Besides, in data set [2], the selectivity ratio was found to be 12.

Regarding `CCC[N+](C)(CC)CCCCCCCCCCCCCCCCCCCC[N+](C)(CC)CCC.[Br-].[Br-]` (centres unmarked) [EXAMPLE 6, N,N'-dimethyl-N,N'-diethyl-N,N'-dipropyl-1,20-eicosanediaminium dibromide], the “Antibabesia activity at 10 millimoles” value in data set [1] was “++ (the same activity at a concentration of 0.01 to 0.1 micromoles)”. The selectivity ratio in data set [2] is 15.

Turning to `CCC[N+](C)(CC)CCCCCCCCCCCCCCCCCCCCCC[N+](C)(CC)CCC` (centres unmarked) [EXAMPLE 7, N,N'-dimethyl-N,N'-diethyl-N N'-dipropyl-1,22-cosanediaminium dibromide], the “Antibabesia activity at 10 millimoles” value in data set [1] is “++ (the same activity at a concentration of 0.01 to 0.1 micromoles)”. In addition, the selectivity ratio in data set [2] stood at 35.

Regarding `CCC[N+](CCC)(CCC)CCCCCCCCCCCCCC[N+](CCC)(CCC)CCC.[Br-].[Br-]` [EXAMPLE 8, N,N,N,N',N',N'-hexapropyl-1,14-tetradecanediaminium dibromide], the “Antibabesia activity at 10 millimoles” value in data set [1] is recorded as “+ (a concentration under or equal to 1 micromole)”. For the same molecule, in data set [2], the selectivity ratio was 20.

Consider `CCC[N+](CCC)(CCC)CCCCCCCCCCCCCCCCCCCC[N+](CCC)(CCC)CCC.[Br-].[Br-]` [EXAMPLE 10, N,N,N,N', N',N'-hexapropyl-1,20-eicosanediaminium dibromide], for which the “Antibabesia activity at 10 millimoles” value in data set [1] is listed as “+ (a concentration under or equal to 1 micromole)”. Also, the selectivity ratio in data set [2] is 14.

Take `CCC[N+](CCC)(CCC)CCCCCCCCCCCCCCCCCCCCCCCC[N+](CCC)(CCC)CCC.[Br-].[Br-]` [EXAMPLE 11, N,N,N,N',N',N'-hexapropyl-1,24-tetracosanediaminium dibromide]: the “Antibabesia activity at 10 millimoles” value in data set [1] was “+ (a concentration under or equal to 1 micromole)”. Moreover, in data set [2], the selectivity ratio was determined as 28.

As to `CC[N+](C)(CC)CCCCCCCCCCCCCCCC[N+](C)(CC)CC` [EXAMPLE 13, N,N'-dimethyl-,N,N,N',N'-tetraethyl-1,16-hexadecanediaminium dibromide], the “Antibabesia activity at 10 millimoles” value in data set [1] was “+++ (a 50% inhibition of (^3 H) hypoxanthine incorporation (ED50), these molecules having a concentration less than or equal to 0.01 micromoles)”. In data set [2], the selectivity ratio turned out to be 6.

Turning to `CC[N+](C)(CC)CCCCCCCCCCCCCCCCCC[N+](C)(CC)CC` [EXAMPLE 14, N,N'-dimethyl-,N,N,N',N'-tetraethyl-1,18-octadecanediaminium dibromide], the “Antibabesia activity at 10 millimoles” value in data set [1] was “+++ (a 50% inhibition of (^3 H) hypoxanthine incorporation (ED50), these molecules having a concentration less than or equal to 0.01 micromoles)”. Moreover, the selectivity ratio in data set [2] worked out at 14.

As for `CC[N+](C)(CC)CCCCCCCCCCCCCCCCCCCCC[N+](C)(CC)CC` [EXAMPLE 15, N,N'-dimethyl-,N,N,N',N'-tetraethyl-1,21-heneicosanediaminium dibromide], the “Antibabesia activity at 10 millimoles” value in data set [1] is on record as “+++ (a 50% inhibition of (^3 H) hypoxanthine incorporation (ED50), these molecules having a concentration less than or equal to 0.01 micromoles)”. Also, the selectivity ratio in data set [2] turned out to be 12.

Consider `C[N+]1(CCCCCCCCCCCCCC[N+]2(C)CCCC2)CCCC1` [EXAMPLE 16, 1,1'-(1,14-tetradecanediyl)bis(1-methylpyrrolidium) dibromide], for which the “Antibabesia activity at 10 millimoles” value in data set [1] is “+++ (a 50% inhibition of (^3 H) hypoxanthine incorporation (ED50), these molecules having a concentration less than or equal to 0.01 micromoles)”. The selectivity ratio in data set [2] is 8.

`C[N+]1(CCCCCCCCCCCCCCCC[N+]2(C)CCCC2)CCCC1` [EXAMPLE 17, 1,1'-(1,16-hexadecanediyl)bis(1-methylpyrrolidium) dibromide]: the “Antibabesia activity at 10 millimoles” value in data set [1] is “+++ (a 50% inhibition of (^3 H) hypoxanthine incorporation (ED50), these molecules having a concentration less than or equal to 0.01 micromoles)”. The selectivity ratio in data set [2] amounted to 7.

For the molecule `C[N+]1(CCCCCCCCCCCCCCCCCCCCCC[N+]2(C)CCCC2CO)CCCC1CO` (centres unmarked) [EXAMPLE 19, 1,1'-(1,22-docosanediyl)bis(2-hydroxymethl-1-methylpyrrolidium) dibromide], the “Antibabesia activity at 10 millimoles” value in data set [1] is given as “+ (a concentration under or equal to 1 micromole)”. Further, the selectivity ratio in data set [2] is 40.

As for `C[N+]1(CCCCCCCCCCCCCCCC[N+]2(C)CCOCC2)CCOCC1` [EXAMPLE 21, 1,1'-(1,16-hexadecanediyl)bis(1-methylmorphofinium) dibromide], in data set [1], the “Antibabesia activity at 10 millimoles” value was “+++ (a 50% inhibition of (^3 H) hypoxanthine incorporation (ED50), these molecules having a concentration less than or equal to 0.01 micromoles)”. For the same molecule, the selectivity ratio in data set [2] is 25.

For `CCCCCCCCCCCC[N+](C)(C)CCCCCCCCCCCCCCCC[N+](C)(C)CCCCCCCCCCCC.[Br-].[Br-]` [EXAMPLE 22, N,N'-didodecyl-N,N,N',N'-tetramethyl-1,16-hexadecanediaminium dibromide], the “Antibabesia activity at 10 millimoles” value in data set [1] is reported as “++ (the same activity at a concentration of 0.01 to 0.1 micromoles)”. Further, in data set [2], the selectivity ratio stood at 20.

Consider `CCCCCCCCCCCC[N+](C)(C)CCCCCCCCCCCCCCCCCC[N+](C)(C)CCCCCCCCCCCC` [EXAMPLE 23], for which the “Antibabesia activity at 10 millimoles” value in data set [1] is listed as “+ (a concentration under or equal to 1 micromole)”. For the same molecule, the selectivity ratio in data set [2] amounted to 35.

`C#CC[N+](C)(C)CCCCCCCCCCCCCC[N+](C)(C)CC#C.[Br-].[Br-]` [EXAMPLE 24, N,N'-di(2-propynyl)-N,N,N',N'-tetramethyl-1,14-tetradecandiaminium dibromide]: the “Antibabesia activity at 10 millimoles” value in data set [1] is “++ (the same activity at a concentration of 0.01 to 0.1 micromoles)”. For the same molecule, the selectivity ratio in data set [2] worked out at 12.

For `C=CC[N+](C)(C)CCCCCCCCCCCCCC[N+](C)(C)CC=C.[Br-].[Br-]` [EXAMPLE 25, N,N'-di(2-propenyl)-N,N,N',N'-tetramethyl-1,14-tetradecanediaminium dibromide], in data set [1], the “Antibabesia activity at 10 millimoles” value was “+++ (a 50% inhibition of (^3 H) hypoxanthine incorporation (ED50), these molecules having a concentration less than or equal to 0.01 micromoles)”. Besides, in data set [2], the selectivity ratio worked out at 15.

In the case of `C#CCC[N+](C)(C)CCCCCCCCCCCCCC[N+](C)(C)CCC#C.[Br-].[Br-]` [EXAMPLE 26, N,N'-di(3-butynyl)-N,N,N',N'-tetramethyl-1,14-tetradecanediaminium dibromide], the “Antibabesia activity at 10 millimoles” value in data set [1] is “++ (the same activity at a concentration of 0.01 to 0.1 micromoles)”. The selectivity ratio in data set [2] is 45.

Regarding `CCC[N+](CCC)(CCO)CCCCCCCCCCCCCC[N+](CCC)(CCC)CCO.[Br-].[Br-]` [EXAMPLE 27, N,N'-di(2-hydroxyethyl)-N,N,N',N'-tetrapropyl-1,14-tetradecanediaminium dibromide], in data set [1], the “Antibabesia activity at 10 millimoles” value is “++ (the same activity at a concentration of 0.01 to 0.1 micromoles)”. For the same molecule, the selectivity ratio in data set [2] turned out to be 15.

As for `CCC[N+](CCC)(CCCCCCCCCCCCCC[N+](CCC)(CCC)CCOCC)CCOCC.[Br-].[Br-]` [EXAMPLE 28, N,N'-di(2-ethoxyethyl)-N,N,N',N'-tetrapropyl-1,14-tetradecanediaminium dibromide], the “Antibabesia activity at 10 millimoles” value in data set [1] is reported as “+++ (a 50% inhibition of (^3 H) hypoxanthine incorporation (ED50), these molecules having a concentration less than or equal to 0.01 micromoles)”. In addition, in data set [2], the selectivity ratio is 40.
